Assay results from paper PMC5428777, “Molecular Characteristics and Serodiagnostic Potential of Dihydrofolate Reductase from Echinococcus granulosus” (Scientific Reports, 2017).
Where two headings read alike, the source gives them in different places.

How the values were obtained:
[1] = target: T1, rEg-DHFR (Echinococcus granulosus, UniProt U6JJS2); assay: Inhibition of rEg-DHFR enzyme activity by antifolates (DHFR assay kit, absorbance 340 nm); type: biochemical
T1 sequence (U6JJS2 1-191): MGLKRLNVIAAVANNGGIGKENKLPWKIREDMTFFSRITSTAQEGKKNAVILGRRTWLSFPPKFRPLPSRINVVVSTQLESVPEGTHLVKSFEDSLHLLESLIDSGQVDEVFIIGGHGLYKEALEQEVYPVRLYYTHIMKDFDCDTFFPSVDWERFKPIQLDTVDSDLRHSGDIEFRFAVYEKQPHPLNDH
Experimental: The temperature was controlled at 22 °C.
The IC50 was calculated using GraphPad Prism software by nonlinear curve-fitting.

[2] = test system: E. granulosus protoscoleces (PSCs); assay: microbe, parasite or virus in culture; type: cell-based, Echinococcus granulosus; settings: for effect on PSCs (protoscolex viability): all three concentrations tested
Experimental: Cysts of E. granulosus were obtained from a slaughterhouse in Qinghai Province, China. The PSCs were separated in sterile conditions and washed three times in phosphate-buffered saline (PBS). Rinsed PSCs were diluted to a concentration of 1,500 mL^−1 and maintained as previously described, [47]. Briefly, PSCs were cultured in RPMI 1640 medium (Hyclone) with 10% fetal bovine serum (Hyclone), 10% hydatid fluid, 100 U.mL^−1 penicillin G and 100 μg.mL^−1 streptomycin (Sigma, USA). Adult worms were collected from the small intestine of a 2-month-old dog 35 days post-infection with 20,000 PSCs. A 5-month-old dog and two 9-week-old female New Zealand white rabbits were obtained from the Laboratory Animal Center of Sichuan Agricultural University. All animals were provided with food pellets and sterilised water ad libitum.
[…]. PSCs incubated with only assay buffer (DHFR assay kit; Sigma) or DMSO were used as negative controls. The vitality of protoscoleces was assessed using a Trypan Blue exclusion test[50], [51]. The daily percentages of PSCs vitality were calculated on six microscopic fields covering approximately 10–20 PSCs. The effect of per drug concentration was monitored in triplicate and in two separate trials.

[3] = target: T1, rEg-DHFR; assay: Enzyme kinetics of rEg-DHFR towards substrate DHF (Michaelis-Menten fit); type: biochemical; settings: 0-120 μM DHF, 60 μM NADPH, 22 °C
Experimental: The enzymatic characteristics of rEg-DHFR and human DHFR enzyme (DHFR assay kit; Sigma) were analysed using a DHFR assay kit (Sigma) following the manufacturer’s instructions[41]. Briefly, a range of purified rEg-DHFR concentrations was added to the assay buffer and mixed well and the optimal concentration was determined. Reaction progress was measured based on the decrease in absorbance at 340 nm. Data was recorded at 25 s intervals for 2.5 min. The temperature was controlled at 22 °C. […] Kinetic parameters (Vmax and Km) were calculated using GraphPad Prism® software (San Diego, CA, USA; http://www.graphpad.com) based on a Michaelis-Menten curve fit.

[4] = test system: E. granulosus protoscoleces (PSCs); parameters: method as in PMID 11133110; settings: positive control; ref [30]; cited from earlier work
[5] = substrate: Nc1nc2c(c(=O)[nH]1)N=C(CNc1ccc(C(=O)N[C@@H](CCC(=O)O)C(=O)O)cc1)CN2; assay: purified protein, by the assay type; settings: other: 0-120 μM DHF, 60 μM NADPH, 22 °C
[6] = 50 μM dihydrofolic acid, 60 μM NADPH, mean ± SD, read-out: IC50 for rEg-DHFR

Molecule: Nc1nc(N)c2nc(CNc3ccc(C(=O)N[C@@H](CCC(=O)O)C(=O)O)cc3)cnc2n1 [Aminopterin, aminopterin]
- IC50 [1]: 63.7 ± 6.76 nM
- effect on PSCs (protoscolex viability) ([2]; after 7 days of incubation): slight effect

Molecule: Nc1nc2c(c(=O)[nH]1)N=C(CNc1ccc(C(=O)N[C@@H](CCC(=O)O)C(=O)O)cc1)CN2 [DHF, 7,8-dihydrofolate]
- Vmax of rEg-DHFR for substrate DHF [3]: 2.384 ± 0.01874 µmol/min/mg

Molecule: CN(Cc1cnc2nc(N)nc(N)c2n1)c1ccc(C(=O)N[C@@H](CCC(=O)O)C(=O)O)cc1 [Methotrexate, methotrexate]
- effect on PSCs (protoscolex viability) ([2]; after 7 days of incubation): slight effect

Molecule: O=C(C1CCCCC1)N1CC(=O)N2CCc3ccccc3C2C1 (stereo not drawn) [Praziquantel]
- protoscolicidal activity [4]: exhibit protoscolicidal activity

Molecule: CCc1nc(N)nc(N)c1-c1ccc(Cl)cc1 [Pyrimethamine, pyrimethamine]
- IC50 [1, 6]: 860 ± 93.5 nM
- percentage vitality of PSCs ([2]; 800 μM, after 7 days of incubation, control 82.65 ± 6.11%): 20.67 ± 2.49%

Molecule: COc1cc(Cc2cnc(N)nc2N)cc(OC)c1OC [Trimethoprim, trimethoprim]
- IC50 [1, 6]: 30800 ± 2090 nM
- viability at 3000 µM ([2]; Echinococcus granulosus, 168 h, read-out: PSCs remaining viable in culture): 38.7 ± 6.18%

B1: rEg-DHFR (Echinococcus granulosus) (protein)
chain: T1 sequence (U6JJS2 1-191)
- Km [5]: 18.74 ± 0.5651 µM

B2: human DHFR (Homo sapiens) (protein)
chain: MVGSLNCIVAVSQNMGIGKNGDLPWPPLRNEFRYFQRMTTTSSVEGKQNLVIMGKKTWFSIPEKNRPLKGRINLVLSRELKEPPQGAHFLSRSLDDALKLTEQPELANKVDMVWIVGGSSVYKEAMNHPGHLKLFVTRIMQDFESDTFFPEIDLEKYKLLPEYPGVLSDVQEEKGIKYKFEVYEKND
- Km [5]: 14.61 ± 0.6590 µM
- Vmax [5]: 3.370 ± 0.02327 µmol/min/mg
